Source: US20260364079A1 (Principia Biopharma Inc., priority 2022, published 2026)
Where “and” joins values, the source holds several entries; their conditions need not be identical. Equal values may be shown once.

Experiment: phase 1/2 study in relapsed/refractory ITP (NCT03395210), safety
Conditions: for Time From Initial Treatment to Rescue Use: single patient
From the text: The Safety Population was used for all safety analyses.
Pre-existing conditions that worsened during a study were reported as AEs.
Safety was graded per NCI CTCAE, version 4.0.

[1] = treatment-related TEAE, any grade
[2] = treatment-related TEAE, grade 1
[3] = treatment-related TEAE, grade 2
[4] = treatment-related TEAE, grade 3/4

CC(C)(C=C(C#N)C(=O)N1CCC[C@@H](n2nc(-c3ccc(Oc4ccccc4)cc3F)c3c(N)ncnc32)C1)N1CCN(C2COC2)CC1 (mixture of isomers) [rilzabrutinib, (R)-2-[3-[4-amino-3-(2-fluoro-4-phenoxy-phenyl)pyrazolo[3,4-d]pyrimidin-1-yl]piperidine-1-carbonyl]-4-methyl-4-[4-(oxetan-3-yl)piperazin-1-yl]pent-2-enenitrile]
Rescue medication received but discontinued due to unrelated adverse events (in vivo): Two | TEAE leading to discontinuation: grade 3 GI hemorrhage (in vivo): 1 patient | TEAE leading to discontinuation: grade 4 Evans syndrome (in vivo): 1 patient | TEAE leading to discontinuation: grade 4 thrombocytopenia (in vivo): 1 patient | TEAE resulting in study drug discontinuation (in vivo): Seven | TEAE resulting in study drug discontinuation: administrative and site conditions (in vivo): 1 (2%) patients (%) | TEAE resulting in study drug discontinuation: gastrointestinal (GI) disorders (in vivo): 4 (70%) patients (%) | TEAE resulting in study drug discontinuation: lymphatic system disorders (in vivo): 2 (40%) patients (%) | TEAEs leading to study drug discontinuation reported as serious adverse events (in vivo): Four | Use of rescue medication as cause of study discontinuation (in vivo): four | serious adverse events leading to discontinuation related to treatment (in vivo): none were related to rilzabrutinib treatment | toxicity across all doses (in vivo): only low-grade toxicity across all doses | treatment-related discontinuation: grade 1 fatigue (in vivo): 1 patient | treatment-related discontinuation: grade 2 GI disorders (in vivo): 2 patients | infections, thrombotic events, cardiac arrhythmias, liver toxicity, or increased bleeding (limited follow up time): no evidence of infections, thrombotic events, cardiac arrhythmias, liver toxicity, or increased bleeding | adverse events typically associated with BTK inhibitors (neutropenia, treatment-related infections, bleeding, thrombotic events, fungal infections, atrial fibrillation): no signs or symptoms of adverse events typically associated with BTK inhibitors | related treatment-emergent serious adverse events (open-label Phase 1/2 study in ITP): no related treatment-emergent serious adverse events | Time From Initial Treatment to Rescue Use (200 mg qd, baseline 24 × 10^9/L): Day 36 | Time From Initial Treatment to Rescue Use (300 mg bid, baseline 3 × 10^9/L): Day 29 | Time From Initial Treatment to Rescue Use (400 mg bid, baseline 18 × 10^9/L): Day 11 | Abdominal discomfort [1]: 1 (2) number of patients (percent) | Abdominal distension [1]: 4 (7) number of patients (percent) | Abdominal pain [1]: 2 (3) number of patients (percent) | Abnormal dreams [1]: 1 (2) number of patients (percent) | Akathisia [1]: 1 (2) number of patients (percent) | Alopecia [1]: — (represents zero events) | Anemia [1]: — (represents zero events) | Any TEAE [1]: 31 (52) number of patients (percent) | Arthralgia [1]: — (represents zero events) | Arthropod bite [1]: — (represents zero events) | Back pain [1]: 1 (2) number of patients (percent) | Conjunctival hemorrhage [1]: — (represents zero events) | Contusion [1]: 1 (2) number of patients (percent) | Costochondritis [1]: — (represents zero events) | Cough [1]: — (represents zero events) | Decreased appetite [1]: 1 (2) number of patients (percent) | Defecation urgency [1]: 1 (2) number of patients (percent) | Diarrhea [1]: 19 (32) number of patients (percent) | Dizziness [1]: — (represents zero events) | Dyspepsia [1]: 1 (2) number of patients (percent) | Dyspnea [1]: — (represents zero events) | Dyspnea exertional [1]: — (represents zero events) | Edema [1]: 1 (2) number of patients (percent) | Epigastric discomfort [1]: 1 (2) number of patients (percent) | Epistaxis [1]: — (represents zero events) | Erysipelas [1]: 1 (2) number of patients (percent) | Fatigue [1]: 6 (10) number of patients (percent) | Frequent bowel movements [1]: 1 (2) number of patients (percent) | Headache [1]: 2 (3) number of patients (percent) | Heavy menstrual bleeding [1]: — (represents zero events) | Hypoesthesia [1]: 1 (2) number of patients (percent) | Hypophosphatemia [1]: — (represents zero events) | I lot flush [1]: 1 (2) number of patients (percent) | Ilypokalemia [1]: 1 (2) number of patients (percent) | Increased white blood cell count [1]: 1 (2) number of patients (percent) | Maculo-papular rash [1]: 1 (2) number of patients (percent) | Malaise [1]: 1 (2) number of patients (percent) | Micturition urgency [1]: 1 (2) number of patients (percent) | Muscle spasms [1]: 1 (2) number of patients (percent) | Myalgia [1]: 1 (2) number of patients (percent) | Nasal congestion [1]: — (represents zero events) | Nasopharyngitis [1]: — (represents zero events) | Nausea [1]: 18 (30) number of patients (percent) | Peripheral swelling [1]: — (represents zero events) | Petechiae [1]: — (represents zero events) | Pruritus [1]: 2 (3) number of patients (percent) | Purpura [1]: — (represents zero events) | Rash [1]: 1 (2) number of patients (percent) | Thrombocytopena [1]: — (represents zero events) | Upper abdominal pain [1]: 2 (3) number of patients (percent) | Upper respiratory tract infection [1]: — (represents zero events) | Urinary tract infection [1]: — (represents zero events) | Vomiting [1]: 3 (5) number of patients (percent) | diarrhea [1]: 32% | fatigue [1]: 10% | nausea [1]: 30% | Abdominal discomfort [2]: 1 (2) number of patients (percent) | Abdominal distension [2]: 4 (7) number of patients (percent) | Abdominal pain [2]: — (represents zero events) | Abnormal dreams [2]: 1 (2) number of patients (percent) | Akathisia [2]: 1 (2) number of patients (percent) | Alopecia [2]: — (represents zero events) | Anemia [2]: — (represents zero events) | Any TEAE [2]: 27 (45) number of patients (percent) | Arthralgia [2]: — (represents zero events) | Arthropod bite [2]: — (represents zero events) | Back pain [2]: — (represents zero events) | Conjunctival hemorrhage [2]: — (represents zero events) | Contusion [2]: 1 (2) number of patients (percent) | Costochondritis [2]: — (represents zero events) | Cough [2]: — (represents zero events) | Decreased appetite [2]: 1 (2) number of patients (percent) | Defecation urgency [2]: — (represents zero events) | Diarrhea [2]: 16 (27) number of patients (percent) | Dizziness [2]: — (represents zero events) | Dyspepsia [2]: 1 (2) number of patients (percent) | Dyspnea [2]: — (represents zero events) | Dyspnea exertional [2]: — (represents zero events) | Edema [2]: 1 (2) number of patients (percent) | Epigastric discomfort [2]: — (represents zero events) | Epistaxis [2]: — (represents zero events) | Erysipelas [2]: — (represents zero events) | Fatigue [2]: 5 (8) number of patients (percent) | Frequent bowel movements [2]: — (represents zero events) | Headache [2]: 2 (3) number of patients (percent) | Heavy menstrual bleeding [2]: — (represents zero events) | Hypoesthesia [2]: — (represents zero events) | Hypophosphatemia [2]: — (represents zero events) | I lot flush [2]: — (represents zero events) | Ilypokalemia [2]: 1 (2) number of patients (percent) | Increased white blood cell count [2]: — (represents zero events) | Maculo-papular rash [2]: 1 (2) number of patients (percent) | Malaise [2]: 1 (2) number of patients (percent) | Micturition urgency [2]: 1 (2) number of patients (percent) | Muscle spasms [2]: 1 (2) number of patients (percent) | Myalgia [2]: 1 (2) number of patients (percent) | Nasal congestion [2]: — (represents zero events) | Nasopharyngitis [2]: — (represents zero events) | Nausea [2]: 16 (27) number of patients (percent) | Peripheral swelling [2]: — (represents zero events) | Petechiae [2]: — (represents zero events) | Pruritus [2]: 1 (2) number of patients (percent) | Purpura [2]: — (represents zero events) | Rash [2]: 1 (2) number of patients (percent) | Thrombocytopena [2]: — (represents zero events) | Upper abdominal pain [2]: 1 (2) number of patients (percent) | Upper respiratory tract infection [2]: — (represents zero events) | Urinary tract infection [2]: — (represents zero events) | Vomiting [2]: 2 (3) number of patients (percent) | Abdominal discomfort [3]: — (represents zero events) | Abdominal distension [3]: — (represents zero events) | Abdominal pain [3]: 2 (3) number of patients (percent) | Abnormal dreams [3]: — (represents zero events) | Akathisia [3]: — (represents zero events) | Alopecia [3]: — (represents zero events) | Anemia [3]: — (represents zero events) | Any TEAE [3]: 15 (25) number of patients (percent) | Arthralgia [3]: — (represents zero events) | Arthropod bite [3]: — (represents zero events) | Back pain [3]: 1 (2) number of patients (percent) | Conjunctival hemorrhage [3]: — (represents zero events) | Contusion [3]: — (represents zero events) | Costochondritis [3]: — (represents zero events) | Cough [3]: — (represents zero events) | Decreased appetite [3]: — (represents zero events) | Defecation urgency [3]: 1 (2) number of patients (percent) | Diarrhea [3]: 3 (5) number of patients (percent) | Dizziness [3]: — (represents zero events) | Dyspepsia [3]: — (represents zero events) | Dyspnea [3]: — (represents zero events) | Dyspnea exertional [3]: — (represents zero events) | Edema [3]: — (represents zero events) | Epigastric discomfort [3]: 1 (2) number of patients (percent) | Epistaxis [3]: — (represents zero events) | Erysipelas [3]: 1 number of patients (percent) and 1 (2) number of patients (percent) | Fatigue [3]: 1 (2) number of patients (percent) | Frequent bowel movements [3]: 1 (2) number of patients (percent) | Headache [3]: — (represents zero events) | Heavy menstrual bleeding [3]: — (represents zero events) | Hypoesthesia [3]: 1 (2) number of patients (percent) | Hypophosphatemia [3]: — (represents zero events) | I lot flush [3]: 1 (2) number of patients (percent) | Ilypokalemia [3]: — (represents zero events) | Increased white blood cell count [3]: 1 (2) number of patients (percent) | Maculo-papular rash [3]: — (represents zero events) | Malaise [3]: — (represents zero events) | Micturition urgency [3]: — (represents zero events) | Muscle spasms [3]: — (represents zero events) | Myalgia [3]: — (represents zero events) | Nasal congestion [3]: — (represents zero events) | Nasopharyngitis [3]: — (represents zero events) | Nausea [3]: 2 (3) number of patients (percent) | Peripheral swelling [3]: — (represents zero events) | Petechiae [3]: — (represents zero events) | Pruritus [3]: 1 (2) number of patients (percent) | Purpura [3]: — (represents zero events) | Rash [3]: — (represents zero events) | Thrombocytopena [3]: — (represents zero events) | Upper abdominal pain [3]: 1 (2) number of patients (percent) | Upper respiratory tract infection [3]: — (represents zero events) | Urinary tract infection [3]: — (represents zero events) | Vomiting [3]: 1 (2) number of patients (percent) | Abdominal discomfort [4]: — (represents zero events) | Abdominal distension [4]: — (represents zero events) | Abdominal pain [4]: — (represents zero events) | Abnormal dreams [4]: — (represents zero events) | Akathisia [4]: — (represents zero events) | Alopecia [4]: — (represents zero events) | Anemia [4]: — (represents zero events) | Arthralgia [4]: — (represents zero events) | Arthropod bite [4]: — (represents zero events) | Back pain [4]: — (represents zero events) | Conjunctival hemorrhage [4]: — (represents zero events) | Contusion [4]: — (represents zero events) | Costochondritis [4]: — (represents zero events) | Cough [4]: — (represents zero events) | Decreased appetite [4]: — (represents zero events) | Defecation urgency [4]: — (represents zero events) | Diarrhea [4]: — (represents zero events) | Dizziness [4]: — (represents zero events) | Dyspepsia [4]: — (represents zero events) | Dyspnea [4]: — (represents zero events) | Dyspnea exertional [4]: — (represents zero events) | Edema [4]: — (represents zero events) | Epigastric discomfort [4]: — (represents zero events) | Epistaxis [4]: — (represents zero events) | Erysipelas [4]: — (represents zero events) | Fatigue [4]: — (represents zero events) | Frequent bowel movements [4]: — (represents zero events) | Headache [4]: — (represents zero events) | Heavy menstrual bleeding [4]: — (represents zero events) | Hypoesthesia [4]: — (represents zero events) | Hypophosphatemia [4]: — (represents zero events) | I lot flush [4]: — (represents zero events) | Ilypokalemia [4]: — (represents zero events) | Increased white blood cell count [4]: — (represents zero events) | Maculo-papular rash [4]: — (represents zero events) | Malaise [4]: — (represents zero events) | Micturition urgency [4]: — (represents zero events) | Muscle spasms [4]: — (represents zero events) | Myalgia [4]: — (represents zero events) | Nasal congestion [4]: — (represents zero events) | Nasopharyngitis [4]: — (represents zero events) | Nausea [4]: — (represents zero events) | Peripheral swelling [4]: — (represents zero events) | Petechiae [4]: — (represents zero events) | Pruritus [4]: — (represents zero events) | Purpura [4]: — (represents zero events) | Rash [4]: — (represents zero events) | Thrombocytopena [4]: — (represents zero events) | Upper abdominal pain [4]: — (represents zero events) | Upper respiratory tract infection [4]: — (represents zero events) | Urinary tract infection [4]: — (represents zero events) | Vomiting [4]: — (represents zero events) | grade 1 candida infection (unrelated to treatment): ‡Other infections and infestations not listed in the table that were unrelated to treatment and that occurred in a single patient each included grade 1 candida infection, fungal skin infection, and osteomyelitis; and grade 2 infected skin ulcer and oral herpes. | patient deaths (unrelated to treatment, 400 mg bid discontinued day 8, died 135 days after initiating): 1 patient
